How the values were obtained:
[1] = Storage stability about 72 hours at 2-8° C.; type: physicochemical; details: −20° C., 5° C., ambient; data not shown
Method: The effects of storage on ascorbic acid compositions including varying amounts of buffer with a consistent glutathione concentration were tested. […] At testing, Formulations 1-9 were evaluated to determine ascorbic acid and reduced and oxidized glutathione concentrations. A standard RP-HPLC method for these analytes was used. The method was validated including specificity, accuracy, repeatability, LOQ, mini linearity, in-vial NPLC sample stability and stability-indicating check with informal forced degradation samples. The pH of each formulation was determined using a pH probe place in a sample of each solution. Results are shown in FIG. 15. ascorbic (ACS) alone was unstable under the conditions tested (−20° C., 5° C., ambient) (data not shown).

[2] = Stability: oxidized glutathione and reduced ascorbic acid after 4 weeks of storage at 5° C.; type: physicochemical; details: reduced ascorbic acid maintained after 4 weeks at 5° C.; pH and atmosphere per formulation
Excerpt: Oxidized glutathione is associated with the generation of protein-carbonyls via glutathionlyation, which occurs when oxidized glutathione dissociates and attaches to proteins. […] Additionally, when ascorbic acid is oxidized into dehydroascorbate (DHA), DHA can break down and result in the formation of protein adducts in process called ascorbylation (Simpson et al., Biochim biophys Acta 2000; 1501:12-24). […] Specifically, nitrogen-sparged samples were mixed under anaerobic conditions sparged with nitrogen, and the samples were packaged using nitrogen bubbling. Ambient samples were mixed under room air conditions and were not bubbled with nitrogen. The formulations were stored at 5° C. for 4 weeks, and the percent of oxidized glutathione (GSSG) and ascorbic acid (ASC) was measured for each sample according to standard techniques.

[3] = system: MRSA UAB-1; assay: In vitro MIC against bacterial isolates; type: cell-based, Methicillin-resistant Staphylococcus aureus; details: Anaerobic (+nitrate); 12 hrs
Method: (§1) The MIC for laboratory clinical isolate Pseudomonas aeruginosa (Schroeter) Migula (ATCC BAA-47 (PAO1)) was also tested. The MICs were determined under anaerobic conditions on media supplemented with nitrate, under aerobic conditions supplemented with nitrate, or under ambient conditions.
(§2) The clinical isolates were inoculated in duplicate on agar plates overnight under anaerobic conditions at 36° C.±1.0° C. in a 96-well plate. Laboratory isolates of Burkholderia cepacia were also grown in duplicate overnight under aerobic conditions at 36° C.±1.0° C. in a 96-well plate. […] Ten dilutions for each test solution were examined: 50%, 25%, 12.5%, 6.25%, 3.13%, 1.57%, 0.78%, 0.39%, 0.2%, and 0.1%. The colony isolates were incubated for 12 hours or 24 hours at 36° C.±1.0° C. under anaerobic conditions in media comprising Luria Agar/Broth and nitrate with one of the three test solutions. […] MICs were determined via visual inspection and OD620.

[4] = system: MRSA UAB-3; assay: In vitro MIC against bacterial isolates; type: cell-based, Methicillin-resistant Staphylococcus aureus; details: Anaerobic (+nitrate); 12 hrs
Method: as §1, §2

[5] = system: Pa UAB-M-2; assay: In vitro MIC against bacterial isolates; type: cell-based, Pseudomonas aeruginosa; details: Anaerobic (+nitrate); 12 hrs
Method: as §1, §2

[6] = system: Pa UAB-NM-5; assay: In vitro MIC against bacterial isolates; type: cell-based, Pseudomonas aeruginosa; details: Anaerobic (+nitrate); 12 hrs
Method: as §1, §2

[7] = system: Pa BAA-47 (PAO1); assay: In vitro MIC against bacterial isolates; type: cell-based, Pseudomonas aeruginosa; details: Anaerobic (+nitrate); 12 hrs
Method: as §1, §2

[8] = system: Pa UAB-NM-1; assay: In vitro MIC against bacterial isolates; type: cell-based, Pseudomonas aeruginosa; details: Anaerobic (+nitrate); 12 hrs
Method: as §1, §2

[9] = system: Pa UAB-NM-3; assay: In vitro MIC against bacterial isolates; type: cell-based, Pseudomonas aeruginosa; details: Anaerobic (+nitrate); 12 hrs
Method: as §1, §2

[10] = system: dF508−/− primary human bronchial epithelial cells; assay: Mucociliary transport rate, ASL and CBF by micro-optical coherence tomography (uOCT); type: cell-based; details: isolated components vs PBS control; FIG. 2
Excerpt: Briefly, primary human bronchial epithelial cells were isolated from the airways of patients with cystic fibrosis and were terminally differentiated. All cells isolated from cystic fibrosis patients were represented by the dF508−/− genotype. […] Micro-optical coherence tomography (uOCT) was used to assess the mucociliary transport rate according to methods described in Liu, L., et al., PLoS One.
As described above in Example 2, primary human bronchial epithelial cells were isolated from the airways of patients with cystic fibrosis, and uOCT was used to assess the mucociliary transport rate according to methods described in Liu, L., et al., PLoS One.
MCT rate was assessed in a mucociliary clearance assay according to the methods in Example 3 above.

SMILES | stability [1] | % ASC [2] [%] | MIC [3] [%] | MIC [4] [%] | MIC [5] [%] | MIC [6] [%] | MIC [7] [%] | MIC [8] [%] | MIC [9] [%] | mucociliary transport rate [10]
O=C1O[C@H]([C@@H](O)CO)C(O)=C1O [Ascorbic Acid Only, ascorbic acid] | unstable | 77.88 |  |  |  |  |  |  |  | 
O=C([O-])O.[Na+] [HCO3, sodium bicarbonate] |  |  | 25 | 25 | 12.5 | 12.5 | 12.5 | 12.5 | 12.5 | did not alter the mucociliary transport rate
N[C@@H](CCC(=O)N[C@@H](CS)C(=O)NCC(=O)O)C(=O)O [glutathione, Glutathione] |  |  |  |  |  |  |  |  |  | did not alter the mucociliary transport rate

Source: patent publication US11890315B2, “Stable ascorbic acid compositions and methods of using same” (RENOVION, INC., priority 2017, dated 2024)
